Patent US20100267561A1, “HERBICIDAL PYRIDAZINONE DERIVATIVES” (priority 2007, published 2010)

What was measured:
Assay type in all cases: in vivo
[1] = test system: Italian ryegrass (Lolium multiflorum); test: Test B pre-/postemergence plant response; settings: for Ryegrass, Italian plant response rating: 8 g ai/ha
Summary of the method: (§1)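 Visual scoring from 0 (no effect) to 100 (complete control) against untreated controls was done 13 to 15 days after greenhouse treatment. Chemicals were formulated in a surfactant-containing non-phytotoxic solvent and applied to soil preemergence or to 1- to 4-leaf (2-18 cm) plants postemergence.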

[2] = test system: bermudagrass (Cynodon dactylon); test: Test B pre-/postemergence plant response; settings: for Bermudagrass plant response rating: 8 g ai/ha
Summary of the method: as §1

[3] = test system: common (oilseed) sunflower (Helianthus annuus); test: Test B pre-/postemergence plant response; settings: Preemergence
Summary of the method: as §1

[4] = test system: downy bromegrass (Bromus tectorum); test: Test B pre-/postemergence plant response; settings: for Bromegrass, Downy plant response rating: 8 g ai/ha
Summary of the method: as §1

[5] = test system: giant foxtail (Setaria faberii); test: Test B pre-/postemergence plant response; settings: for Foxtail, Giant plant response rating: 8 g ai/ha
Summary of the method: as §1

[6] = test system: lambsquarters (Chenopodium album); test: Test B pre-/postemergence plant response; settings: for Lambsquarters plant response rating: 8 g ai/ha
Summary of the method: as §1

[7] = test system: morningglory (Ipomoea coccinea); test: Test B pre-/postemergence plant response; settings: for Morningglory plant response rating: 8 g ai/ha
Summary of the method: as §1

[8] = test system: pigweed (Amaranthus retroflexus); test: Test B pre-/postemergence plant response; settings: for Pigweed plant response rating: 8 g ai/ha
Summary of the method: as §1

soybean (Glycine max) = test: Test B pre-/postemergence plant response
Summary of the method: as §1

[9] = test system: surinam grass (Brachiaria decumbens); test: Test B pre-/postemergence plant response; settings: for Surinam Grass plant response rating: 8 g ai/ha
Summary of the method: as §1

[10] = test system: wheat (Triticum aestivum); test: Test B pre-/postemergence plant response; settings: for Wheat plant response rating: 8 g ai/ha
Summary of the method: as §1

[11] = test system: canarygrass (Phalaris minor); test: Test B postemergence plant response; settings: for Plant response rating, Canarygrass: Postemergence
Summary of the method: (§2)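 Visual injury score from 0 (none) to 100 (complete control) versus controls, taken 13 to 15 days after treatment in the greenhouse; chemicals applied postemergence, as formulated, to plants of 1- to 4-leaf stage (2 to 18 cm tall); dash denotes no test result.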

[12] = test system: chickweed (Stellaria media); test: Test B postemergence plant response; settings: for Plant response rating, Chickweed: Postemergence
Summary of the method: as §2

[13] = test system: windgrass (Apera spica-venti); test: Test B postemergence plant response; settings: for Plant response rating, Windgrass: Postemergence
Summary of the method: as §2

[14] = test system: winter barley (Hordeum vulgare); test: Test B postemergence plant response; settings: for Plant response rating, Barley: Postemergence, scale 0 to 100, 0 no effect, 100 complete control
Summary of the method: as §2

[15] = Postemergence, 16 g ai/ha, scale 0 to 100
[16] = Postemergence, 31 g ai/ha, scale 0 to 100, 0 no effect, 100 complete control
[17] = Postemergence, 62 g ai/ha, scale 0 to 100, 0 no effect, 100 complete control
[18] = Preemergence, 16 g ai/ha, scale 0 to 100 (0 no effect, 100 complete control)
[19] = Preemergence, 31 g ai/ha, 0 to 100 scale, 0 no effect, 100 complete control
[20] = Preemergence, 62 g ai/ha, scale 0 to 100
[21] = 8 g ai/ha, postemergence, 0-100 scale
[22] = 31 g ai/ha, scale 0 to 100, 0 no effect, 100 complete control
[23] = 62 g ai/ha, scale 0 to 100, 0 no effect, 100 complete control

Cn1ncc(O)c(-c2nn(-c3ccc(Cl)cc3)cc2Cl)c1=O [Compound 28]
Ryegrass, Italian plant response rating ([1]; postemergence, 0-100 scale): 40
Plant response rating, Ryegrass, Italian [1, 15]: 55
Plant response rating, Ryegrass, Italian [1, 16]: 55
Plant response rating, Ryegrass, Italian [1, 17]: 98
Plant response rating, Ryegrass, Italian [1, 18]: 80
Plant response rating, Ryegrass, Italian [1, 19]: 100
Plant response rating, Ryegrass, Italian [1, 20]: 100
Ryegrass, Italian plant response rating ([1]; Preemergence, scale 0 to 100): 0
Bermudagrass plant response rating ([2]; postemergence, 0-100 scale): 65
Plant response rating, Bermudagrass [2, 15]: 80
Plant response rating, Bermudagrass [2, 16]: 100
Plant response rating, Bermudagrass [2, 17]: 100
Bermudagrass plant response rating ([2]; Preemergence, scale 0 to 100 (0 no effect, 100 complete control)): 0
Plant response rating, Bermudagrass [2, 18]: 100
Plant response rating, Bermudagrass [2, 19]: 100
Plant response rating, Bermudagrass [2, 20]: 100
Plant response rating, Sunflower ([3]; 16 g ai/ha, scale 0 to 100 (0 no effect, 100 complete control)): 0
Plant response rating, Sunflower ([3]; 31 g ai/ha, 0 to 100 scale, 0 no effect, 100 complete control): 0
Plant response rating, Sunflower ([3]; 62 g ai/ha, scale 0 to 100): 0
Sunflower plant response rating ([3]; 8 g ai/ha, scale 0 to 100): 0
Bromegrass, Downy plant response rating ([4]; postemergence, 0-100 scale): 0
Plant response rating, Bromegrass, Downy [4, 15]: 5
Plant response rating, Bromegrass, Downy [4, 16]: 10
Plant response rating, Bromegrass, Downy [4, 17]: 20
Plant response rating, Bromegrass, Downy [4, 18]: 40
Plant response rating, Bromegrass, Downy [4, 19]: 50
Plant response rating, Bromegrass, Downy [4, 20]: 50
Bromegrass, Downy plant response rating ([4]; Preemergence, scale 0 to 100): 20
Foxtail, Giant plant response rating ([5]; postemergence, 0-100 scale): 65
Plant response rating, Foxtail, Giant [5, 15]: 80
Plant response rating, Foxtail, Giant [5, 16]: 95
Plant response rating, Foxtail, Giant [5, 17]: 100
Plant response rating, Foxtail, Giant [5, 18]: 98
Plant response rating, Foxtail, Giant [5, 19]: 100
Plant response rating, Foxtail, Giant [5, 20]: 100
Foxtail, Giant plant response rating ([5]; Preemergence, scale 0 to 100): 60
Lambsquarters plant response rating ([6]; postemergence, 0-100 scale): 0
Plant response rating, Lambsquarters [6, 15]: 0
Plant response rating, Lambsquarters [6, 16]: 0
Plant response rating, Lambsquarters [6, 17]: 0
Plant response rating, Lambsquarters [6, 18]: 95
Plant response rating, Lambsquarters [6, 19]: 95
Plant response rating, Lambsquarters [6, 20]: 98
Lambsquarters plant response rating ([6]; Preemergence, scale 0 to 100): 80
Morningglory plant response rating ([7]; postemergence, 0-100 scale): 0
Plant response rating, Morningglory [7, 15]: 0
Plant response rating, Morningglory [7, 16]: 0
Plant response rating, Morningglory [7, 17]: 0
Plant response rating, Morningglory [7, 18]: 0
Plant response rating, Morningglory [7, 19]: 0
Plant response rating, Morningglory [7, 20]: 0
Morningglory plant response rating ([7]; Preemergence, scale 0 to 100): 0
Pigweed plant response rating ([8]; postemergence, 0-100 scale): 0
Plant response rating, Pigweed [8, 15]: 0
Plant response rating, Pigweed [8, 16]: 0
Plant response rating, Pigweed [8, 17]: 0
Plant response rating, Pigweed [8, 18]: 0
Plant response rating, Pigweed [8, 19]: 0
Plant response rating, Pigweed [8, 20]: 0
Pigweed plant response rating ([8]; Preemergence, scale 0 to 100): 0
Soybean plant response rating (soybean (Glycine max); [21]): 0
Plant response rating, Soybean (soybean (Glycine max); [15]): 0
Plant response rating, Soybean (soybean (Glycine max); [17]): 20
Plant response rating, Soybean (soybean (Glycine max); [19]): 0
Plant response rating, Soybean (soybean (Glycine max); [20]): 0
Surinam Grass plant response rating ([9]; postemergence, 0-100 scale): 65
Plant response rating, Surinam Grass [9, 15]: 65
Plant response rating, Surinam Grass [9, 17]: 90
Plant response rating, Surinam Grass [9, 18]: 65
Plant response rating, Surinam Grass [9, 19]: 98
Plant response rating, Surinam Grass [9, 20]: 100
Surinam Grass plant response rating ([9]; Preemergence, scale 0 to 100): 0
Wheat plant response rating ([10]; postemergence, 0-100 scale): 20
Plant response rating, Wheat [10, 15]: 40
Plant response rating, Wheat [10, 17]: 90
Plant response rating, Wheat [10, 18]: 5
Plant response rating, Wheat [10, 19]: 15
Plant response rating, Wheat [10, 20]: 90
Wheat plant response rating ([10]; Preemergence, scale 0 to 100): 0
Canarygrass plant response rating [11, 21]: 0
Plant response rating, Canarygrass ([11]; 16 g ai/ha, scale 0 to 100): 0
Plant response rating, Canarygrass [11, 22]: 50
Chickweed plant response rating [12, 21]: 0
Plant response rating, Chickweed ([12]; 16 g ai/ha, scale 0 to 100): 0
Plant response rating, Chickweed [12, 22]: 0
Plant response rating, Chickweed [12, 23]: 0
Windgrass plant response rating [13, 21]: 0
Plant response rating, Windgrass ([13]; 16 g ai/ha, scale 0 to 100): 35
Plant response rating, Windgrass [13, 23]: 85
Barley plant response rating [14, 21]: 0
Plant response rating, Barley ([14]; 16 g ai/ha): 0
Plant response rating, Barley ([14]; 31 g ai/ha): 50
